Source: PubChem BioAssay AID1259407 (Chemical Carcinogenesis Research Information System (CCRIS), 2018)
Activity calls are given as the source filed them. How the calls were made is not given here.

Test system: CCRIS mutagenicity, Ames/micronucleus/aberration tests
Experiment: CCRIS mutagenicity studies

Measured: mutagenic call

Nc1ccc2cc3ccccc3cc2c1
active: Test System: AMES SALMONELLA TYPHIMURIUM, Strain/Indicator: NM2000, Metabolic Activation: RAT, LIVER, S-9, AROCLOR 1254, Method: PREINCUBATION active; positive | Test System: AMES SALMONELLA TYPHIMURIUM, Strain/Indicator: NM2009, Metabolic Activation: RAT, LIVER, S-9, AROCLOR 1254, Method: PREINCUBATION active; positive | Test System: AMES SALMONELLA TYPHIMURIUM, Strain/Indicator: TA97, Metabolic Activation: RAT, LIVER, S-9, AROCLOR 1254, Method: STANDARD PLATE active; positive | Test System: AMES SALMONELLA TYPHIMURIUM, Strain/Indicator: TA97A, Metabolic Activation: RAT, LIVER, S-9, AROCLOR 1254, Method: STANDARD PLATE active; positive | Test System: AMES SALMONELLA TYPHIMURIUM, Strain/Indicator: TA98 (1,8-DNP6), Metabolic Activation: RAT LIVER, CYTOSOL, AROCLOR 1254, Method: STANDARD PLATE active; positive | Test System: AMES SALMONELLA TYPHIMURIUM, Strain/Indicator: TA98 (1,8-DNP6), Metabolic Activation: RAT LIVER, MICROSOMES, AROCLOR 1254, Method: STANDARD PLATE active; positive | Test System: AMES SALMONELLA TYPHIMURIUM, Strain/Indicator: TA98, Metabolic Activation: FERRET, LIVER, MICROSOMES, Method: STANDARD PLATE active; positive | Test System: AMES SALMONELLA TYPHIMURIUM, Strain/Indicator: TA98, Metabolic Activation: HAMSTER, LIVER, MICROSOMES, Method: STANDARD PLATE active; positive | Test System: AMES SALMONELLA TYPHIMURIUM, Strain/Indicator: TA98, Metabolic Activation: HUMAN, LIVER, CYTOSOL, Method: STANDARD PLATE active; positive | Test System: AMES SALMONELLA TYPHIMURIUM, Strain/Indicator: TA98, Metabolic Activation: HUMAN, RED BLOOD CELL, CYTOSOL, Method: PREINCUBATION active; positive | Test System: AMES SALMONELLA TYPHIMURIUM, Strain/Indicator: TA98, Metabolic Activation: PIG, LIVER, MICROSOMES, Method: STANDARD PLATE active; positive | Test System: AMES SALMONELLA TYPHIMURIUM, Strain/Indicator: TA98, Metabolic Activation: RAT LIVER, CYTOSOL, AROCLOR 1254, Method: STANDARD PLATE active; positive | Test System: AMES SALMONELLA TYPHIMURIUM, Strain/Indicator: TA98, Metabolic Activation: RAT LIVER, MICROSOMES, AROCLOR 1254, Method: STANDARD PLATE active; positive | Test System: AMES SALMONELLA TYPHIMURIUM, Strain/Indicator: TA98, Metabolic Activation: RAT, LIVER, MICROSOMES, Method: STANDARD PLATE active; positive | Test System: AMES SALMONELLA TYPHIMURIUM, Strain/Indicator: TA98, Metabolic Activation: RAT, LIVER, S-9, AROCLOR 1254 (0.5, 1, 2 OR 4%), Method: STANDARD PLATE active; positive | Test System: AMES SALMONELLA TYPHIMURIUM, Strain/Indicator: TA98, Metabolic Activation: RAT, LIVER, S-9, AROCLOR 1254, Method: SPIRAL ASSAY active; positive | Test System: AMES SALMONELLA TYPHIMURIUM, Strain/Indicator: TA98, Metabolic Activation: RAT, LIVER, S-9, AROCLOR 1254 OR PHENOBARBITOL, Method: STANDARD PLATE active; positive | Test System: AMES SALMONELLA TYPHIMURIUM, Strain/Indicator: TA98, Metabolic Activation: RAT, LIVER, S-9, PHENOBARBITAL, Method: STANDARD PLATE active; positive | Test System: AMES SALMONELLA TYPHIMURIUM, Strain/Indicator: TA100, Metabolic Activation: MOUSE, LIVER, MICROSOMES, BENZO[E]PYRENE AND TCDD, Method: STANDARD PLATE active; positive | Test System: AMES SALMONELLA TYPHIMURIUM, Strain/Indicator: TA100, Metabolic Activation: RAT, LIVER, PARENCHYMAL CELLS (FRESHLY ISOLATED OR STORED FOR 1 D OR CRYOPRESERVED), Method: PREINCUBATION active; positive | Test System: AMES SALMONELLA TYPHIMURIUM, Strain/Indicator: TA100, Metabolic Activation: RAT, LIVER, S-9, AROCLOR 1254 (2%), Method: STANDARD PLATE active; positive | Test System: AMES SALMONELLA TYPHIMURIUM, Strain/Indicator: TA100, Metabolic Activation: RAT, LIVER, S-9, AROCLOR 1254, Method: SPIRAL ASSAY active; positive | Test System: AMES SALMONELLA TYPHIMURIUM, Strain/Indicator: TA100, Metabolic Activation: RAT, LIVER, S-9, AROCLOR 1254, Method: STANDARD PLATE active; positive | Test System: AMES SALMONELLA TYPHIMURIUM, Strain/Indicator: TA100, Metabolic Activation: RAT, LIVER, S-9, AROCLOR 1254 OR PHENOBARBITOL, Method: STANDARD PLATE active; positive | Test System: AMES SALMONELLA TYPHIMURIUM, Strain/Indicator: TA100, Metabolic Activation: RAT, LIVER, S-9, PHENOBARBITAL, Method: STANDARD PLATE active; positive | Test System: AMES SALMONELLA TYPHIMURIUM, Strain/Indicator: TA1535 (PSK1002), Metabolic Activation: RAT, LIVER, S-9, AROCLOR 1254, Method: PREINCUBATION active; positive | Test System: AMES SALMONELLA TYPHIMURIUM, Strain/Indicator: TA1535, Metabolic Activation: RAT, LIVER, S-9, AROCLOR 1254, Method: SPIRAL ASSAY active; positive | Test System: AMES SALMONELLA TYPHIMURIUM, Strain/Indicator: TA1535, Metabolic Activation: RAT, LIVER, S-9, AROCLOR 1254, Method: STANDARD PLATE active; positive | Test System: AMES SALMONELLA TYPHIMURIUM, Strain/Indicator: TA1535, Metabolic Activation: RAT, LIVER, S-9, AROCLOR 1254 OR PHENOBARBITOL, Method: STANDARD PLATE active; positive | Test System: AMES SALMONELLA TYPHIMURIUM, Strain/Indicator: TA1535, Metabolic Activation: RAT, LIVER, S-9, PHENOBARBITAL, Method: STANDARD PLATE active; positive | Test System: AMES SALMONELLA TYPHIMURIUM, Strain/Indicator: TA1537, Metabolic Activation: RAT, LIVER, S-9, AROCLOR 1254 (2%), Method: STANDARD PLATE active; positive | Test System: AMES SALMONELLA TYPHIMURIUM, Strain/Indicator: TA1537, Metabolic Activation: RAT, LIVER, S-9, AROCLOR 1254, Method: SPIRAL ASSAY active; positive | Test System: AMES SALMONELLA TYPHIMURIUM, Strain/Indicator: TA1537, Metabolic Activation: RAT, LIVER, S-9, AROCLOR 1254, Method: STANDARD PLATE active; positive | Test System: AMES SALMONELLA TYPHIMURIUM, Strain/Indicator: TA1537, Metabolic Activation: RAT, LIVER, S-9, AROCLOR 1254 OR PHENOBARBITOL, Method: STANDARD PLATE active; positive | Test System: AMES SALMONELLA TYPHIMURIUM, Strain/Indicator: TA1538, Metabolic Activation: RAT, LIVER, S-9, AROCLOR 1254, Method: STANDARD PLATE active; positive | Test System: AMES SALMONELLA TYPHIMURIUM, Strain/Indicator: TA1538, Metabolic Activation: RAT, LIVER, S-9, AROCLOR 1254 OR PHENOBARBITOL, Method: STANDARD PLATE active; positive | Test System: AMES SALMONELLA TYPHIMURIUM, Strain/Indicator: TA1538, Metabolic Activation: RAT, LIVER, S-9, PHENOBARBITAL, Method: STANDARD PLATE active; positive | Test System: AMES SALMONELLA TYPHIMURIUM, Strain/Indicator: YG1012, Metabolic Activation: RAT, LIVER, S-9, PHENOBARBITAL AND 5,6-BENZOFLAVONE, Method: PREINCUBATION active; positive | Test System: AMES SALMONELLA TYPHIMURIUM, Strain/Indicator: YG1019, Metabolic Activation: RAT, LIVER, S-9, PHENOBARBITAL AND 5,6-BENZOFLAVONE, Method: PREINCUBATION active; positive | Test System: AMES SALMONELLA TYPHIMURIUM, Strain/Indicator: YG1020, Metabolic Activation: RAT, LIVER, S-9, PHENOBARBITAL AND 5,6-BENZOFLAVONE, Method: PREINCUBATION active; positive | Test System: AMES SALMONELLA TYPHIMURIUM, Strain/Indicator: YG1024, Metabolic Activation: RAT, LIVER, S-9, PHENOBARBITAL AND 5,6-BENZOFLAVONE, Method: PREINCUBATION active; positive | Test System: AMES SALMONELLA TYPHIMURIUM, Strain/Indicator: YG1025, Metabolic Activation: RAT, LIVER, S-9, PHENOBARBITAL AND 5,6-BENZOFLAVONE, Method: PREINCUBATION active; positive | Test System: AMES SALMONELLA TYPHIMURIUM, Strain/Indicator: YG1029, Metabolic Activation: RAT, LIVER, S-9, PHENOBARBITAL AND 5,6-BENZOFLAVONE, Method: PREINCUBATION active; positive | Test System: Ames Salmonella typhimurium, Strain/Indicator: YG7108pin3ERb5, Metabolic Activation: None, Method: Standard plate active; positive | Test System: CHINESE HAMSTER OVARY, Strain/Indicator: CHO-K1-BH4 (HGPRT), Metabolic Activation: RAT, LIVER, S-9, AROCLOR, Method: SUSPENSION/PLATE active; positive | Test System: MOUSE LYMPHOMA, Strain/Indicator: L5178Y (TK+/TK-), Metabolic Activation: RAT, LIVER, S-9, AROCLOR 1254, Method: SUSPENSION/PLATE active; positive
inactive: Test System: AMES SALMONELLA TYPHIMURIUM, Strain/Indicator: TA97, Metabolic Activation: NONE, Method: STANDARD PLATE inactive; negative | Test System: AMES SALMONELLA TYPHIMURIUM, Strain/Indicator: TA98, Metabolic Activation: FERRET, LIVER, CYTOSOL, Method: STANDARD PLATE inactive; negative | Test System: AMES SALMONELLA TYPHIMURIUM, Strain/Indicator: TA98, Metabolic Activation: HAMSTER, LIVER, CYTOSOL, Method: STANDARD PLATE inactive; negative | Test System: AMES SALMONELLA TYPHIMURIUM, Strain/Indicator: TA98, Metabolic Activation: NONE, Method: SPIRAL ASSAY inactive; negative | Test System: AMES SALMONELLA TYPHIMURIUM, Strain/Indicator: TA98, Metabolic Activation: PIG, LIVER, CYTOSOL, Method: STANDARD PLATE inactive; negative | Test System: AMES SALMONELLA TYPHIMURIUM, Strain/Indicator: TA98, Metabolic Activation: RAT, LIVER, CYTOSOL, Method: STANDARD PLATE inactive; negative | Test System: AMES SALMONELLA TYPHIMURIUM, Strain/Indicator: TA100, Metabolic Activation: NONE, Method: SPIRAL ASSAY inactive; negative | Test System: AMES SALMONELLA TYPHIMURIUM, Strain/Indicator: TA1535, Metabolic Activation: NONE, Method: SPIRAL ASSAY inactive; negative | Test System: AMES SALMONELLA TYPHIMURIUM, Strain/Indicator: TA1535, Metabolic Activation: RAT, LIVER, S-9, AROCLOR 1254 (2%), Method: STANDARD PLATE inactive; negative | Test System: AMES SALMONELLA TYPHIMURIUM, Strain/Indicator: TA1537, Metabolic Activation: NONE, Method: SPIRAL ASSAY inactive; negative | Test System: AMES SALMONELLA TYPHIMURIUM, Strain/Indicator: TA1537, Metabolic Activation: NONE, Method: STANDARD PLATE inactive; negative | Test System: AMES SALMONELLA TYPHIMURIUM, Strain/Indicator: TA1538, Metabolic Activation: NONE, Method: STANDARD PLATE inactive; negative | Test System: E. COLI, Strain/Indicator: WP2 UVRA, Metabolic Activation: NONE, Method: STANDARD PLATE inactive; negative | Test System: MOUSE LYMPHOMA, Strain/Indicator: L5178Y (TK+/TK-), Metabolic Activation: NONE, Method: SUSPENSION/PLATE inactive; negative
